Measurements taken from patent publication US20170143701A1, “CARBOHYDRATE METABOLISM-AMELIORATING AGENT” (SUNTORY HOLDINGS LIMITED, priority 2014, published 2017).

System: C57/BL6J mice
Experiment: In vivo plasma GLP-1 level-increasing action: plasma active GLP-1 level (ELISA) after oral administration
Conditions: 10 mg/kg oral; for Significant difference (p < 0.05) vs control group, plasma active GLP-1 level: 30 minutes, Student's t-test; for Plasma active GLP-1 level (relative value to control group as 100), average value: blood 30 minutes after, 0.5% CMC-Na group = 100
Experimental: Seven-week-old male C57/BL6J mice were purchased from CLEA Japan, Inc. for use, and they were subjected to an experiment after 1 week of a habituation period.
After the habituation period, the mice were subjected to 5.5 hours of food deprivation and 2 hours of water deprivation. Thereafter, a cyclic dipeptide dissolved or suspended in a 0.5% CMC-Na aqueous solution in 10 mg/kg was orally administered to each mouse forcibly. After 30 minutes, the blood was collected from the abdominal vena cava under anesthesia, and 1 μL of heparin sodium and 1 μL of 10 mM Sitagliptin phosphate were added to each collected blood, which was then subjected to centrifugation at 8000 rpm for 10 minutes to recover the plasma, and the plasma active GLP-1 level was measured by using the ELISA kit. In the analysis, the active GLP-1 level for a group administered with 0.5% CMC-Na aqueous solution was defined as 100, and relative values thereto were used.

`CC(O)C1NC(=O)C(Cc2ccccc2)NC1=O` (stereo not drawn) [compound 56, Cyclo(Thr-Phe)] was tested. Which “Significant difference (p < 0.05) vs control group, plasma active GLP-1 level” value (Table 10, Experiment 5) did it give?
Its value is “No”.

And the “Plasma active GLP-1 level (relative value to control group as 100), average value” (Table 10, Experiment 5)?
The value was 87.

Which “Significant difference (p < 0.05) vs control group, plasma active GLP-1 level” value (Table 15, Experiment 10) does the source give for `O=C1CNC(=O)C(CS)N1` (stereo not drawn) [compound 178, cyclo-glycyl-cysteine] here?
Its value is “Yes”.

And the “Plasma active GLP-1 level (relative value to control group as 100), average value” (Table 15, Experiment 10)?
Its value is 282.

How did the “Significant difference (p < 0.05) vs control group, plasma active GLP-1 level” value (Table 8, Experiment 3) turn out when `O=C1N[C@@H](Cc2cnc[nH]2)C(=O)N[C@H]1Cc1ccccc1` [compound 38, cyclo-histidyl-phenylalanine] was run?
The value was “Yes”.

What about the “Plasma active GLP-1 level (relative value to control group as 100), average value” (Table 8, Experiment 3) of the same molecule?
Its value is 264.

Which results are given for `O=C1CNC(=O)C(Cc2ccc(O)cc2)N1` (stereo not drawn) [compound 42, Cyclo(Tyr-Gly)]?
Significant difference (p < 0.05) vs control group, plasma active GLP-1 level (Table 10, Experiment 5): No; Plasma active GLP-1 level (relative value to control group as 100), average value (Table 10, Experiment 5): 97

For `O=C(O)CCC1NC(=O)C(Cc2ccccc2)NC1=O` (stereo not drawn) [compound 53, Cyclo(Glu-Phe)], which “Significant difference (p < 0.05) vs control group, plasma active GLP-1 level” value (Table 10, Experiment 5) is on record?
Its value is “No”.

What about the “Plasma active GLP-1 level (relative value to control group as 100), average value” (Table 10, Experiment 5) of the same molecule?
The value was 93.

Which results are given for `CC(C)[C@@H]1NC(=O)CNC1=O` [compound 155, Cyclo(Val-Gly)]?
Significant difference (p < 0.05) vs control group, plasma active GLP-1 level (Table 15, Experiment 10): No; Plasma active GLP-1 level (relative value to control group as 100), average value (Table 15, Experiment 10): 55

For `O=C1N[C@@H](Cc2ccc(O)cc2)C(=O)N2CCC[C@@H]12` [compound 30, Cyclo(Pro-Tyr)], which “Significant difference (p < 0.05) vs control group, plasma active GLP-1 level” value (Table 9, Experiment 4) is on record?
The value was “No”.

And the “Plasma active GLP-1 level (relative value to control group as 100), average value” (Table 9, Experiment 4)?
Its value is 95.

`CC(C)CC1NC(=O)C(C(C)O)NC1=O` (stereo not drawn) [compound 105, Cyclo(Thr-Leu)] was tested. Which “Significant difference (p < 0.05) vs control group, plasma active GLP-1 level” value (Table 13, Experiment 8) did it give?
Its value is “No”.

What about the “Plasma active GLP-1 level (relative value to control group as 100), average value” (Table 13, Experiment 8) of the same molecule?
The value was 94.

What does the source list for `O=C(O)CCC1NC(=O)C(Cc2c[nH]c3ccccc23)NC1=O` (stereo not drawn) [compound 77, Cyclo(Trp-Glu)]?
Significant difference (p < 0.05) vs control group, plasma active GLP-1 level (Table 11, Experiment 6): No; Plasma active GLP-1 level (relative value to control group as 100), average value (Table 11, Experiment 6): 110

`CC(C)C[C@@H]1NC(=O)[C@H](CC(C)C)NC1=O` [compound 15, Cyclo(Leu-Leu)] was tested. Which “Significant difference (p < 0.05) vs control group, plasma active GLP-1 level” value (Table 9, Experiment 4) did it give?
The value was “No”.

What about the “Plasma active GLP-1 level (relative value to control group as 100), average value” (Table 9, Experiment 4) of the same molecule?
The value was 95.

How did the “Significant difference (p < 0.05) vs control group, plasma active GLP-1 level” value (Table 9, Experiment 4) turn out when `O=C1N[C@@H](Cc2ccc(O)cc2)C(=O)N[C@H]1CO` [compound 29, Cyclo(Ser-Tyr)] was run?
The value was “No”.

What about the “Plasma active GLP-1 level (relative value to control group as 100), average value” (Table 9, Experiment 4) of the same molecule?
The value was 95.

`CC(C)[C@@H]1NC(=O)[C@H](Cc2ccccc2)NC1=O` [compound 54, Cyclo(Val-Phe)] was tested. Which “Significant difference (p < 0.05) vs control group, plasma active GLP-1 level” value (Table 6, Experiment 1) did it give?
The value was “No”.

What about the “Significant difference (p < 0.05) vs control group, plasma active GLP-1 level” value (Table 10, Experiment 5) of the same molecule?
Its value is “No”.

`CC(C)CC1NC(=O)C(CO)NC1=O` (stereo not drawn) [compound 151, cyclo-seryl-leucine] was tested. Which “Significant difference (p < 0.05) vs control group, plasma active GLP-1 level” value (Table 15, Experiment 10) did it give?
The value was “Yes”.

What about the “Plasma active GLP-1 level (relative value to control group as 100), average value” (Table 15, Experiment 10) of the same molecule?
Its value is 259.

With `CCC(C)C1NC(=O)C(CC(C)C)NC1=O` (stereo not drawn) [compound 71, Cyclo(Ile-Leu)] as the molecule, how does the “Significant difference (p < 0.05) vs control group, plasma active GLP-1 level” value (Table 11, Experiment 6) read?
The value was “No”.

And the “Plasma active GLP-1 level (relative value to control group as 100), average value” (Table 11, Experiment 6)?
Its value is 79.

`O=C1NC(Cc2ccccc2)C(=O)N2CCCC12` (stereo not drawn) [compound 13, Cyclo(Phe-Pro)] was tested. Which “Significant difference (p < 0.05) vs control group, plasma active GLP-1 level” value (Table 9, Experiment 4) did it give?
The value was “No”.

What about the “Plasma active GLP-1 level (relative value to control group as 100), average value” (Table 9, Experiment 4) of the same molecule?
The value was 120.

Which “Significant difference (p < 0.05) vs control group, plasma active GLP-1 level” value (Table 11, Experiment 6) does the source give for `O=C1NC(Cc2cnc[nH]2)C(=O)NC1Cc1ccc(O)cc1` (stereo not drawn) [compound 85, Cyclo(His-Tyr)] here?
Its value is “No”.

And the “Plasma active GLP-1 level (relative value to control group as 100), average value” (Table 11, Experiment 6)?
The value was 90.

For `O=C(O)CCC1NC(=O)C(CS)NC1=O` (stereo not drawn) [compound 179, cyclo-glutamyl-cysteine], which “Significant difference (p < 0.05) vs control group, plasma active GLP-1 level” value (Table 15, Experiment 10) is on record?
Its value is “Yes”.

And the “Plasma active GLP-1 level (relative value to control group as 100), average value” (Table 15, Experiment 10)?
Its value is 304.

What does the source list for `CC(C)[C@@H]1NC(=O)[C@H](Cc2ccc(O)cc2)NC1=O` [compound 88, cyclo-valyl-tyrosine]?
Significant difference (p < 0.05) vs control group, plasma active GLP-1 level (Table 12, Experiment 7): Yes; Plasma active GLP-1 level (relative value to control group as 100), average value (Table 12, Experiment 7): 385

Which “Significant difference (p < 0.05) vs control group, plasma active GLP-1 level” value (Table 13, Experiment 8) does the source give for `CC(C)C1NC(=O)C(CCC(=O)O)NC1=O` (stereo not drawn) [compound 118, Cyclo(Val-Glu)] here?
The value was “No”.

What about the “Plasma active GLP-1 level (relative value to control group as 100), average value” (Table 13, Experiment 8) of the same molecule?
The value was 112.

Which “Significant difference (p < 0.05) vs control group, plasma active GLP-1 level” value (Table 11, Experiment 6) does the source give for `NC(=O)CC1NC(=O)C(Cc2c[nH]c3ccccc23)NC1=O` (stereo not drawn) [compound 81, Cyclo(Trp-Asn)] here?
Its value is “No”.

What about the “Plasma active GLP-1 level (relative value to control group as 100), average value” (Table 11, Experiment 6) of the same molecule?
The value was 100.

With `CSCC[C@@H]1NC(=O)CNC1=O` [compound 127, cyclo-methionyl-glycine] as the molecule, how does the “Significant difference (p < 0.05) vs control group, plasma active GLP-1 level” value (Table 14, Experiment 9) read?
Its value is “Yes”.

What about the “Plasma active GLP-1 level (relative value to control group as 100), average value” (Table 14, Experiment 9) of the same molecule?
Its value is 124.

`NC(=O)CC1NC(=O)C(Cc2ccccc2)NC1=O` (stereo not drawn) [compound 64, Cyclo(Asn-Phe)] was tested. Which “Significant difference (p < 0.05) vs control group, plasma active GLP-1 level” value (Table 10, Experiment 5) did it give?
Its value is “No”.

And the “Plasma active GLP-1 level (relative value to control group as 100), average value” (Table 10, Experiment 5)?
Its value is 93.

How did the “Significant difference (p < 0.05) vs control group, plasma active GLP-1 level” value (Table 14, Experiment 9) turn out when `CC(C)C1NC(=O)C(CO)NC1=O` (stereo not drawn) [compound 132, cyclo-valyl-serine] was run?
Its value is “Yes”.

What about the “Plasma active GLP-1 level (relative value to control group as 100), average value” (Table 14, Experiment 9) of the same molecule?
The value was 129.

`C[C@@H](O)[C@@H]1NC(=O)[C@H](Cc2ccc(O)cc2)NC1=O` [compound 90, cyclo-threonyl-tyrosine] was tested. Which “Significant difference (p < 0.05) vs control group, plasma active GLP-1 level” value (Table 12, Experiment 7) did it give?
The value was “Yes”.

And the “Plasma active GLP-1 level (relative value to control group as 100), average value” (Table 12, Experiment 7)?
The value was 466.

For `CCC(C)C1NC(=O)C(Cc2ccccc2)NC1=O` (stereo not drawn) [compound 55, Cyclo(Ile-Phe)], which “Significant difference (p < 0.05) vs control group, plasma active GLP-1 level” value (Table 10, Experiment 5) is on record?
Its value is “No”.

And the “Plasma active GLP-1 level (relative value to control group as 100), average value” (Table 10, Experiment 5)?
The value was 90.

Which “Significant difference (p < 0.05) vs control group, plasma active GLP-1 level” value (Table 15, Experiment 10) does the source give for `CSCCC1NC(=O)C(C(C)C)NC1=O` (stereo not drawn) [compound 160, cyclo-methionyl-valine] here?
Its value is “Yes”.

What about the “Plasma active GLP-1 level (relative value to control group as 100), average value” (Table 15, Experiment 10) of the same molecule?
The value was 304.

What does the source list for `CC[C@H](C)[C@@H]1NC(=O)[C@H](Cc2cnc[nH]2)NC1=O` [compound 148, cyclo-isoleucyl-histidine]?
Significant difference (p < 0.05) vs control group, plasma active GLP-1 level (Table 15, Experiment 10): Yes; Plasma active GLP-1 level (relative value to control group as 100), average value (Table 15, Experiment 10): 259

Which “Significant difference (p < 0.05) vs control group, plasma active GLP-1 level” value (Table 11, Experiment 6) does the source give for `CC1NC(=O)C(Cc2ccc(O)cc2)NC1=O` (stereo not drawn) [compound 86, Cyclo(Ala-Tyr)] here?
The value was “No”.

What about the “Plasma active GLP-1 level (relative value to control group as 100), average value” (Table 11, Experiment 6) of the same molecule?
The value was 90.

With `CC(C)C[C@@H]1NC(=O)[C@H](Cc2ccccc2)NC1=O` [compound 16, Cyclo(Leu-Phe)] as the molecule, how does the “Significant difference (p < 0.05) vs control group, plasma active GLP-1 level” value (Table 9, Experiment 4) read?
Its value is “No”.

What about the “Plasma active GLP-1 level (relative value to control group as 100), average value” (Table 9, Experiment 4) of the same molecule?
Its value is 105.

For `O=C1N[C@@H](Cc2ccc(O)cc2)C(=O)N[C@H]1Cc1ccc(O)cc1` [compound 49, Cyclo(Tyr-Tyr)], which “Significant difference (p < 0.05) vs control group, plasma active GLP-1 level” value (Table 10, Experiment 5) is on record?
The value was “No”.

What about the “Plasma active GLP-1 level (relative value to control group as 100), average value” (Table 10, Experiment 5) of the same molecule?
Its value is 100.
